Data set [1] in a line: Aqueous solubility of gemcabene calcium salt forms over 24 hours (HPLC concentration, XRPD form). The class given is physicochemical. The note with it: slurry in water, approximately 25° C. As to the method: To each vial, approximately 3 mL to 4 mL water were added and the samples were mixed at ambient temperature (approximately 25° C.) for approximately 24 hours. […] From each vial, samples of the slurries were taken after 1, 4, and 24 hours, which were separated by centrifugation. The solids were separated by centrifugation and analyzed by XRPD for solid form and by HPLC for concentration.

Data set [2] is described as follows: Stability study of gemcabene calcium salt forms (XRPD form, HPLC/CAD purity). In kind it is physicochemical. On the procedure:
The stability studies were carried out using storage conditions at a) 40° C. and 75% relative humidity (RH), b) at 80° C. and c) at ambient temperature (approximately 22° C.). After 7 days and 14 days, the samples were removed from the relevant storage conditions and initially analyzed by XRPD to identify any form changes. The samples were then analyzed by HPLC/CAD (high-performance liquid chromatography equipped with a charged aerosol detector) for purity, with all solid purity values given on a w/w % basis.

Turning to `CC(C)(CCCCOCCCCC(C)(C)C(=O)[O-])C(=O)[O-].[Ca+2]` [amorphous gemcabene calcium salt], the “change in polymorphic form during the test period (XRPD)” value in data set [1] (24 hours) was “conversion to a new polymorph, gemcabene calcium salt hydrate Crystal Form 6”. The “change in concentration (HPLC) during the experiment” value in data set [1] (sampled 1, 4, 24 hours) was “initial increase in concentration after 4 hours followed by a slight decrease in the concentration after 24 hours”. The “change in form (XRPD)” value in data set [2] (2-week study, 40° C./75% RH, 80° C. and ambient) is “No change in the form”. For the same compound, the “purity (HPLC/CAD) compared to the starting form” value in data set [2] (after 2 weeks storage, all 3 storage conditions) is “drop in purity”.

The record behind these values is patent US20200253877A1, “GEMCABENE, PHARMACEUTICALLY ACCEPTABLE SALTS THEREOF, COMPOSITIONS THEREOF AND METHODS OF USE THEREFOR” (NEUROBO PHARMACEUTICALS, INC., priority 2018, published 2020).
